Like-named read-outs stand apart in the source and are kept apart here.
Experiments:
[1] = molecular target: T1, serotonin-1A(5-HT1A) receptors (Rattus norvegicus, UniProt P19327); test: affinity for serotonin-1A (5-HT1A) receptors by displacement experiments with [3H]-8-OH-DPAT (rat frontal cortex); assay type: binding
T1 construct: The frontal cortex was dissected out; from tissue; host or cells: rat frontal cortex homogenate (Chbb:Thom strain)
T1 sequence (P19327 1-422): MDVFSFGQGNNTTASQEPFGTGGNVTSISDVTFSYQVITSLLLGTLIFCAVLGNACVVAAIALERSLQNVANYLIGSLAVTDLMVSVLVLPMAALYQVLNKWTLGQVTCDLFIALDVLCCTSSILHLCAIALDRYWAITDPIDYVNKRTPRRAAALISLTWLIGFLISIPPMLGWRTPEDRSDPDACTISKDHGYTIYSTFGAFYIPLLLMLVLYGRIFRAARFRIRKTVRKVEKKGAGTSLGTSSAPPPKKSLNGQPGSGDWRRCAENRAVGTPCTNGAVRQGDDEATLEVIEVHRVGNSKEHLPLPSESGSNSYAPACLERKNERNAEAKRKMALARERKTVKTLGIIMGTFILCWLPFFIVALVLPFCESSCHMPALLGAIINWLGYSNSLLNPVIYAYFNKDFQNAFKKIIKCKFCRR
Description: 3. […] (Method of S. J. Peroutka, J. Neurochem. 47, 529 (1986), modified according to H. Gozlan et al., J. Receptor Research 7. 195 (1987))
A male rat (Chbb:Thom strain weighing about 200 g) was decapitated. The brain was removed and placed in ice-cold buffer (50 mmol/1 tris-HCl plus hydrochloric acid ad pH =7.4 at ambient temperature). The frontal cortex was dissected out; its moist weight was determined. It was homogenised in 40 times its volume of buffer (Polytron, position 6, 10 seconds), then centrifuged for 20 minutes at 45,000×g in the refrigerated centrifuge. The pellet was washed in 100 times its volume of buffer and centrifuged again as described above. The resulting pellet was resuspended in 40 times its volume of buffer and pre-incubated for 10 minutes at 37° C. Sixty times the volume of buffer were added and centrifuging was carried out as above. The resulting pellet was washed with 100 times the volume of buffer and centrifuged as above. The pellet was resuspended in buffer (0.8 ml/10 mg) and briefly homogenised in the Polytron. This homogenised tissue was cooled in ice until ready for incubation.
Incubation was stopped by rapid filtering through Whatman GF/B filters; rinsing was carried out twice, each time with 5 ml of ice cold buffer (Filter Prep, Messrs. Ismatec). The radioactivity of the filters was determined by liquid scintillation measurement.
(§1) Specific binding is obtained from total binding minus non-specific binding.

[2] = molecular target: T2, serotonin-2(5-HT2)-receptors (Rattus norvegicus, UniProt P14842); test: affinity for serotonin-2 (5-HT2) receptors by displacement experiments with [3H]-spiperone (rat frontal cortex); assay type: binding
T2 construct: The frontal cortex was dissected out and placed in ice cold 0.32 M saccharose solution; from tissue; host or cells: rat frontal cortex homogenate (Chbb:Thom strain)
Description: as §1
A male rat (Chbb:Thom strain, about 200 g) was decapitated. The brain was removed. The frontal cortex was dissected out and placed in ice cold 0.32 M saccharose solution; its moist weight was determined. It was homogenised in 10 times the volume (0.32 M) of saccharose solution for 1 minute at 800 rpm in a Potter S (made by Braun of Melsungen). The homogenised material was centrifuged for 10 minutes at 1000×g (=3,000 rpm with a rotor 8×38 ml) in a refrigerated centrifuge. The supernatant was decanted off and homogenised (Polytron, position 5, 1 minute); the sediment was discarded. 5 ml (=0.5 g moist weight) of the tissue suspension thus obtained were made up to 40 ml with buffer (50 mm tris-HCl; pH=7.7 at ambient temperature).
0.8 ml of the buffered homogenised tissue (=10 mg moist weight) were incubated with 0.1 ml of a solution of [^3 H]-spiperone (about 0.2 nmol/1 final concentration) and with 0.1 ml of a solution of the test substance (increasing concentration) for 15 minutes at 37° C. (triple measurement). Incubation was stopped by rapid filtering through a Whatman GF/B filter; rinsing was carried out 3 times, each time with 5 ml of ice cold buffer within a maximum of 10 seconds (Filter Prep Messrs. Ismatec). The radioactivity of the filters was determined by liquid scintillation measurement.
The specific binding is obtained from the total binding minus the non-specific binding. The averages of the triple measurements are entered in a system of coordinates as in 1.3. The IC50 value is the concentration which inhibits the specific binding of [^3 H]-spiperone by 50%.

dopamine D2-receptors = dopamine D2-receptors (Rattus norvegicus, UniProt P61169); test: affinity for dopamine D2-receptors by displacement experiments with [3H]-spiperone (rat striatum membranes); assay type: binding; settings: for Ki: [3H]-spiperone, high-affinity form of the dopamine receptor; for α2-IC50 / D2-Ki: relative affinity for dopamine-D2 receptors compared with α2-adrenoceptors, the higher, the higher the D2/α2 selectivity
Description: 1Determining the affinity for dopamine D2-receptors by displacement experiments with [^3 H]-spiperone (Modified Method of W. Billard et al., Life Sci. 35, 1885 (1984) and D. J. de Vries and P. M. Beart, Eur. J. Pharmacol. 109, 417 (1985))
(§2) Male rats (of the Chbb:Thom strain weighing about 200 g) were killed by a blow to the back of the neck. The brains were removed and dissected on ice. The striata were dissected out, weighed and homogenised in 25 volumes of tris buffer (50 mM tris-HCl, 1 mM EDTA, 5 mM MgCl2 and 1 mM ascorbic acid) for 30 seconds in an Ultra-Turrax at maximum speed, followed by 10 cycles in a Potter-Elvehjem at 1400 rpm. The pellet obtained after centrifuging at 50,000×g at 4° C. for 15 minutes was again taken up in 25 ml of tris buffer and centrifuged under the above conditions. The supernatant was discarded and the pellet obtained was incubated in 25 ml of tris buffer at 37° C. for 30 minutes and then centrifuged again at 50,000×g at 4° C. for 15 minutes. Finally, the pellet obtained was mixed with tris buffer to obtain a homogenate dilution of 1:500 (based on the weight of the striata).
1 ml aliquots of the membrane preparation were incubated with 1 ml of a solution of 0.25 nM [^3 H]-spiperone ([…], Messrs. DuPont NEN) and at increasing concentrations of the test substance (10^-11 to 10^-4 M) at ambient temperature for one hour. Incubation was ended by the addition of 5 ml of ice cold tris buffer and filtration using Whatman GF/B filters. The filters were washed twice, each time with 5 ml of ice cold buffer. The radioactivity of the filters was determined by liquid scintillation measurement in Instagel^(R) (Messrs. Canberra Packard). Non-specific binding was determined in the presence of 10^-5 M haloperidol (Sigma Chemical Co.).
(§3) Displacement curves were obtained from the data using the TOPFIT programming package (G. Heinzel in "Pharmacokinetics During Drug Development: Data Analysis and Evaluation Techniques", G. Bozler and J. M. van Rossum Eds., G. Fischer Verlag, Stuttgart 1982, 207).

alpha-2 receptors = molecular target: T3, alpha-2 receptors (Rattus norvegicus, UniProt P22909); test: affinity for alpha-2 receptors by displacement experiments with [3H]-clonidine (rat cortex membranes); assay type: binding; settings: read-out: α2-IC50
T3 sequence (P22909 1-465): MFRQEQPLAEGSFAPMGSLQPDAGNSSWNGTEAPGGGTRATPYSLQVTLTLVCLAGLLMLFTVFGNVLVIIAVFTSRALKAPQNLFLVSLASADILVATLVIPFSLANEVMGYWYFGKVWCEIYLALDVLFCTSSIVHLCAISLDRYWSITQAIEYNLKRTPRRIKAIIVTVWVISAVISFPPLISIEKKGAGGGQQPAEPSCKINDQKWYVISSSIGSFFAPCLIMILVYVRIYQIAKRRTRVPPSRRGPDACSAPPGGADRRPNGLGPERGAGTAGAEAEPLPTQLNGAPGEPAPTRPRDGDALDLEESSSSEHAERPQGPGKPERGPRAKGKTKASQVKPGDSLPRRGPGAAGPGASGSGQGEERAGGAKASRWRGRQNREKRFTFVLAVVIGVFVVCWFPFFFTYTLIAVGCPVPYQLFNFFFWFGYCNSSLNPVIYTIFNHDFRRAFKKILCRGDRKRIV
Description: Determination of the affinity for alpha-2 receptors by displacement experiments with [^3 H] clonidine (Modified Method of B. Jarrott, W. J. Louis and R. J. Summers, Biochem. Pharmacol. 27, 141 (1979))
A male rat (Chbb:Thom strain weighing about 200 g) was killed by a blow to the back of the neck. The brain was removed and the cortex dissected out, weighed and homogenised in 25 volumes of tris buffer (50 mM tris- HCl, pH 7.50) for 30 seconds in an Ultra-Turrax at maximum speed, followed by 10° Cycles in a Potter- Elvehjem at 1400 rpm. The homogenised material was combined with tris buffer to obtain a homogenate dilution of 1:50 (based on the weight of the cortex).
1 ml aliquots of the membrane preparation were incubated for three hours at ambient temperature with 1 ml of a solution of 1 nM of [^3 H]-clonidine (2.2 TBq/mmol, Messrs. DuPont NEN) and with increasing concentrations of the test substance (10^-11 to 10^-4 M). Incubation was ended by the addition of 5 ml of ice-cold tris buffer and filtration through Whatman GF/B filters. The filters were washed twice, each time with 5 ml of ice cold buffer. The radioactivity of the filters was determined by liquid scintillation measurement in Instagel(R) (Messrs. Canberra Packard). The non-specific binding was determined in the presence of 10^-5 M of oxymetazoline (Sigma Chemical Co.).

dopamine D1-receptors = molecular target: T4, dopamine D1-receptors (Rattus norvegicus, UniProt P18901); test: affinity for dopamine D1-receptors by displacement experiments with [3H]-Sch 23390; assay type: binding
T4 construct: The striata were dissected out, weighed and homogenised in 25 volumes of tris buffer; from tissue; host or cells: rat striatum membranes (Chbb:Thom strain), prepared as for the D2 assay
Description: as §2, §3
7. Determining the affinity for dopamine D1-receptors by displacement experiments with [^3 H1-Sch 23390
The membrane preparation and data analysis were carried out as described for determining the affinity for dopamine D2 - receptors.
1 ml aliquots of the membrane preparation were incubated for 1 hour at ambient temperature with 1 ml of a solution of 0.25 nM [^3 H]-Sch 23390 (2.44 TBq/mmol, Messrs. DuPont NEN) and with increasing concentrations of the test substance (10^-11 to 10^-4 M). Incubation was ended by the addition of 5 ml of ice cold tris buffer and filtration through Whatman GF/B filters. The filters were washed twice, each time with 5 ml of ice cold buffer. The radioactivity of the filters was determined by liquid scintillation measurement in Instagel(R) (Messrs. Canberra Packard).
The non-specific binding was determined in the presence of 10^-6 M (-)-butaclamol (Research Biochemicals Inc.).

[3] = tested on: hypersensitive dopamine receptor; test: motility triggering in the mouse treated 24 hours earlier with reserpine; assay type: in vivo; settings: Mus musculus, sc; reserpine-treated mice, s.c.; read-out: DLi50 (dosage resulting in 50 running pulses every 5 minutes)
Description: This test determines predominantly agonistic effects on the hypersensitive dopamine receptor.
Male mice are treated 24 hours before the experiment with 5 mg/kg i.p. reserpine. The animals are kept at 25°-30° C. and treated three times with 2 ml of a 5% glucose solution in tyrode s.c. (the first time when the reserpine is given, the second time in the evening of the pre-treatment day and the third time on the morning of the test day).
[…] (The injection volume is usually 0.1 ml/10 g of body weight). 30 minutes later the groups of animals are placed in the observation cages (measuring 42 x 24 x 8 cm) and fitted with an infrared lightbeam in order to measure their activity. The value measured is the frequency with which a group of 6 mice pass through the infra-red beam within 5 minutes ("running pulses/5 minutes"; mean at n=3; mean±s.e.m. at n=6).
3 to 6 groups are tested for each substance.

[4] = [3H]-8-OH-DPAT, rat frontal cortex, read-out: 5-HT1A-Ki

dopamine D2-receptors, sequence (P61169 whole entry): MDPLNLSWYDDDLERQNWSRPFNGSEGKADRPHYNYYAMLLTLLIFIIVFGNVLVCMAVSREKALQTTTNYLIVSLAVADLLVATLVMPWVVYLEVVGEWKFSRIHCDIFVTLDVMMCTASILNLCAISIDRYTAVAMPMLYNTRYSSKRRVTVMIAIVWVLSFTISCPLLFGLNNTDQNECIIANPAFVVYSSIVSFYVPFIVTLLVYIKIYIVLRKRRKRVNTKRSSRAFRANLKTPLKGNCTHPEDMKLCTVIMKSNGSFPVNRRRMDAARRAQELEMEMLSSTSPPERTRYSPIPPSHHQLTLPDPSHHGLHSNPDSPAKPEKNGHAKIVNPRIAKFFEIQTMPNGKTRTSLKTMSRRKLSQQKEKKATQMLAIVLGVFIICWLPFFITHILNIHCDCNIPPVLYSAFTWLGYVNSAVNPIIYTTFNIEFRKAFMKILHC
T4 sequence (P18901 whole entry): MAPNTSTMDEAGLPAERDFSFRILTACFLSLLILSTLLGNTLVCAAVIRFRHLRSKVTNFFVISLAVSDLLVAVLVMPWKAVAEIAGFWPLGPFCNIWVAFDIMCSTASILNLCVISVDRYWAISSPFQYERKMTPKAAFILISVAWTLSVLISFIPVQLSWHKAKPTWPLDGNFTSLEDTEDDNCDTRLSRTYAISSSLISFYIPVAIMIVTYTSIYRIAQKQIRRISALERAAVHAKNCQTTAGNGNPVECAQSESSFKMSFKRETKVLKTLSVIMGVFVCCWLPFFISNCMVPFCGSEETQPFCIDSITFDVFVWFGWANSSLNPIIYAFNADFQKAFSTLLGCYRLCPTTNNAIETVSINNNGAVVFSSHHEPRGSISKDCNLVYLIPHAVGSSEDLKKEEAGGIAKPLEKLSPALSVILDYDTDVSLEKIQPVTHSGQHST
T2 sequence (P14842 whole entry): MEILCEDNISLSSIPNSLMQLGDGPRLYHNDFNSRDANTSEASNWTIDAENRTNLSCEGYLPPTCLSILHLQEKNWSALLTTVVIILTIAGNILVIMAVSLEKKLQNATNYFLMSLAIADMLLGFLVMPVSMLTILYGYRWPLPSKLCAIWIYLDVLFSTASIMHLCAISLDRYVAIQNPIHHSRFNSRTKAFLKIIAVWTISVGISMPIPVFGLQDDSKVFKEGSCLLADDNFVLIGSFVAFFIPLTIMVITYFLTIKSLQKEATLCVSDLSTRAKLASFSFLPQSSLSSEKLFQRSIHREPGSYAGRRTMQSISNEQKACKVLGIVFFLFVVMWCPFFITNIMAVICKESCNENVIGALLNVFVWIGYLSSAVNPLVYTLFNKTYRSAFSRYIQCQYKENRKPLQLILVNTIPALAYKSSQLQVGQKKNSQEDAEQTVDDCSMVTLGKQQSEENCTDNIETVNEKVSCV

Row | SMILES | Ki [1, 4] [nM] | Ki [2] [nM] | Ki (dopamine D2-receptors) [nM] | α2-IC50 / D2-Ki (dopamine D2-receptors) | IC50 (alpha-2 receptors) [nM] | also measured
1 | Nc1nc2c(s1)CCN(CC1CC1c1ccccc1)CC2 (centres unmarked) [Example 17, 2-Amino-6-(2-phenyl-1-cyclopropyl-methyl)-4,5,7,8-tetrahydro-6H-thiazolo[5,4-d]azepine] | 1060 | 339 | – | – | – | –
2 | Nc1nc2c(s1)CCN(CCc1ccccc1)CC2 [Compound C, 2amino-6-(2phenylethyl)-4,5,7,8-tetrahydro-6H-thiazolo[5,4d]azepine, reference compound] | – | – | 410 | 12.4 | 5100 | Ki (dopamine D1-receptors): 11000 nM
3 | Nc1nc2c(s1)CCN(CC=Cc1ccccc1OCc1ccccc1)CC2 [Example 4x, 2-Amino-6-(3-(2-benzyloxy-phenyl)allyl)-4,5,7,8-tetrahydro-6H-thiazolo[5,4-d]azepine] | – | – | – | – | – | Ki (dopamine D1-receptors): 400 nM
4 | O=C(c1ccc(F)cc1)C1CCN(CCn2c(=O)[nH]c3ccccc3c2=O)CC1 [Ketanserine, reference compound] | – | – | – | – | – | Ki [1]: 2830 nM
5 | Nc1nc2c(s1)CCN(CC=Cc1ccco1)CC2 [Example 8, 2-Amino-6-(3-(2-furyl)allyl)-4,5,7,8-tetrahydro-6H-thiazolo[5,4-d]azepine] | – | – | – | – | – | ED (50 running pulses/5 min) [3]: 0.34 mg/kg
6 | Nc1nc2c(s1)CCN(CC=Cc1cccnc1)CC2 [Example 11b, 2-Amino-6-(3-(3-pyridyl)allyl)-4,5,7,8-tetrahydro-6H-thiazolo[5,4-d]azepine] | – | – | – | – | – | ED (50 running pulses/5 min) [3]: 0.29 mg/kg
7 | Nc1nc2c(s1)CCN(CCC=Cc1ccccc1)CC2 [Example 8k, 2-Amino-6-(4-phenyl-3-buten-1-yl)-4,5,7,8-tetrahydro-6H-thiazolo[5,4-d]azepine] | – | – | – | – | – | Ki (dopamine D1-receptors): 510 nM
8 | CCCN(CCC)C1CCc2cccc(O)c2C1 (centres unmarked) [Example 8-OH-DPAT, 8-OH-DPAT, reference compound] | – | 2880 | – | – | – | –
9 | Nc1nc2c(s1)CCN(CC=Cc1ccccc1)CC2 [Example 1, 2-Amino-6-cinnamyl-4,5,7,8-tetrahydro-6H-thiazolo-[5,4-d]azepine] | 4340 | 356 | – | – | – | –
10 | Nc1nc2c(s1)CCN(CC1=Cc3ccccc3CC1)CC2 [Example 1b, 2-Amino-6-(1,2-dihydronaphthalen-3-yl-methyl)-4,5,7,8-tetrahydro-6H-thiazolo[5,4-d]azepine] | – | – | – | – | – | Ki (dopamine D1-receptors): 800 nM

Second part, led by results:

Row | Ki [1, 4] [nM] | Ki [2] [nM] | Ki (dopamine D2-receptors) [nM] | α2-IC50 / D2-Ki (dopamine D2-receptors) | IC50 (alpha-2 receptors) [nM] | SMILES | also measured
11 | 14200 | 1800 | 10 | 89 | 890 | Nc1nc2c(s1)CCN(CC#Cc1ccccc1)CC2 [Example 4d, 2-Amino-6-(3-phenyl-2-propyn-1-yl)-4,5,7,8-tetrahydro-6H-thiazolo[5,4-d]azepine] | –
12 | 36300 | 1030 | 3 | 733 | 2200 | Nc1nc2c(s1)CCN(CC=Cc1ccc(-c3ccccc3)cc1)CC2 [Example 4w, 2-Amino-6-(3-(4-biphenyl)allyl)-4,5,7,8-tetrahydro-6H-thiazolo[5,4-d]azepine] | –
13 | 53000 | 860 | 4.4 | 450 | 2000 | Nc1nc2c(s1)CCN(C/C=C\c1ccccc1)CC2 [Example 12b, (Z)-2-Amino-6-(3-phenyl™2-propen-I-yl)-4,5,7,8-tetrahydro-6H-thiazolo[5,4-d]azepine] | –
14 | 14000 | 350 | 6.9 | 318 | 2200 | Nc1nc2c(s1)CCN(CC=Cc1ccc3ccccc3c1)CC2 [Example 4u, 2-Amino-6-(3-(2-naphthyl)allyl)-4,5,7,8-tetrahydro-6H-thiazolo[5,4-d]azepine] | –

Reference: US5068325A, “4,5,7,8-tetrahydro-6H-thiazolo[5,4-d]azepines, their preparation and their use as pharmaceutical compositions” (priority 1988, dated 1991)
